Active and inactive are the calls of the source. The calls are words filed in the database; no cut-off is given here.
Experiments:
[1] = target: T1, Polyunsaturated fatty acid 5-lipoxygenase (Homo sapiens) (UniProt P09917); assay: Inhibition of 5-LOX-mediated LTB4 production from stimulated human neutrophile granulocytes at 50 uM after 10 mins by EIA
T1 sequence (whole entry): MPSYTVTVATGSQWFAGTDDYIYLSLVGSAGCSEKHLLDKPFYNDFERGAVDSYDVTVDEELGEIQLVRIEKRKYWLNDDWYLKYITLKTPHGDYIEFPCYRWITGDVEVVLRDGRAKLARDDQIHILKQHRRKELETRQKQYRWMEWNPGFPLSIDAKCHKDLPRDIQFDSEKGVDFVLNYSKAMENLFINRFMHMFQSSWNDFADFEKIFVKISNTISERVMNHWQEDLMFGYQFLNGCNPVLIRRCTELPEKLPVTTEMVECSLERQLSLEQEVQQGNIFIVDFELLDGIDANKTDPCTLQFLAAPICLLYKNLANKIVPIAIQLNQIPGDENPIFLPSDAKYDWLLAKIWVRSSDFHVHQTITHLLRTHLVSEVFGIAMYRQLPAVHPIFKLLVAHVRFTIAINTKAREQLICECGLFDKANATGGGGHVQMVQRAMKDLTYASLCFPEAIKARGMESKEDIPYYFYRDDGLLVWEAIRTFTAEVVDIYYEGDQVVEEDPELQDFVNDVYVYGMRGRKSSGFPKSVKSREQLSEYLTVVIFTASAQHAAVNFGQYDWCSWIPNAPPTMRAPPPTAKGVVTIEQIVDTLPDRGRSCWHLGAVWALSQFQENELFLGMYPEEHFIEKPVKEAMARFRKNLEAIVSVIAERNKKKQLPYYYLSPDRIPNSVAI

[2] = target: T2, Prostaglandin G/H synthase 1 (Ovis aries) (UniProt P05979); assay: Inhibition of ram seminal vesicle COX1 at 50 uM assessed as PGE2 concentration
T2 sequence (whole entry): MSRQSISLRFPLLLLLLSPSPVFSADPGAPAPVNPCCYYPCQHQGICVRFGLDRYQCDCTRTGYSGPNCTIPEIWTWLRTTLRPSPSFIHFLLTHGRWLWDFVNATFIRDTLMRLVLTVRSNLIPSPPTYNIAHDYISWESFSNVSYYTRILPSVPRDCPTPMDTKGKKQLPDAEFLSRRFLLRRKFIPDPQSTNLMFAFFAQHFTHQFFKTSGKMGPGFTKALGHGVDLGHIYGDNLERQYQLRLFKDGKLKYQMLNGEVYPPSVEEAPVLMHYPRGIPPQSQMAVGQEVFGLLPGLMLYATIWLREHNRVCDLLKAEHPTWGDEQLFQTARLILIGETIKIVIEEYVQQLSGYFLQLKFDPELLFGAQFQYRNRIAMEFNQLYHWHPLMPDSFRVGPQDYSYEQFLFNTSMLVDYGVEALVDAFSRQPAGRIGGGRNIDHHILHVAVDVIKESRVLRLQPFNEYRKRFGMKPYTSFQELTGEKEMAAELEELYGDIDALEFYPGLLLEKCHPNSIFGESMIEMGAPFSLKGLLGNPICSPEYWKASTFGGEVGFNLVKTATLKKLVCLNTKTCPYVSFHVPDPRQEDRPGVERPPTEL

[3] = target: T3, Prostaglandin G/H synthase 2 (Ovis aries, UniProt P79208); assay: Inhibition of sheep placental cotyledens COX2 assessed as PGE2 level by EIA
T3 sequence (P79208 whole entry): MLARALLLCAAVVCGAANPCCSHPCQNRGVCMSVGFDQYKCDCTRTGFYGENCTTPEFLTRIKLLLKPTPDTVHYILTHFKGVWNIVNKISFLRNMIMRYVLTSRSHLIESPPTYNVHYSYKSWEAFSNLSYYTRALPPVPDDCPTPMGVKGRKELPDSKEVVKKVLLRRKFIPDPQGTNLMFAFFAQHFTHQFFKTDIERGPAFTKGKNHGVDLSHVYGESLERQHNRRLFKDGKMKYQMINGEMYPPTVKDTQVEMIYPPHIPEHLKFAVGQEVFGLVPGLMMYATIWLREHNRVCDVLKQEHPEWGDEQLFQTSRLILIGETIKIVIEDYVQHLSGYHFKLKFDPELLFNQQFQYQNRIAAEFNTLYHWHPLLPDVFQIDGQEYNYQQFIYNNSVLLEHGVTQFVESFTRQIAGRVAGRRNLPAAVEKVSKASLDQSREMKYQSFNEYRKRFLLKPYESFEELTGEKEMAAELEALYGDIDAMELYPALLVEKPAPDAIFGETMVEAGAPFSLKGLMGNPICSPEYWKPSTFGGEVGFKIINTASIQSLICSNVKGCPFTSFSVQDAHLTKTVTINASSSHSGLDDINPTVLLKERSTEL

[4] = target: T4, Prostaglandin G/H synthase 2 (Ovis aries) (UniProt P79208); assay: Inhibition of ram seminal vesicle COX2 at 50 uM assessed as PGE2 level by EIA; type: tissue-based
T4 sequence (whole entry): T3 sequence (P79208 whole entry)

[5] = target: T5, Polyunsaturated fatty acid 5-lipoxygenase (Homo sapiens, UniProt P09917); assay: Inhibition of 5-LOX-mediated LTB4 production in stimulated human neutrophile granulocytes after 10 mins by EIA
T5 sequence (P09917 whole entry): T1 sequence (whole entry)

Row | Structure (SMILES) | inhibition [1] | inhibition [2] | IC50 [3] [µM] | inhibition [4] | IC50 [5] [µM]
1 | CC(O)C1(C)Cc2cc(O)c(O)c(O)c2-c2c(cc(O)c(O)c2O)C1 (stereo unspecified) | 37.3% | inactive | 32.1 | – | –
2 | COc1cc2c(c(O)c1O)-c1c(cc(OC)c(O)c1O)C[C@](C)(O)[C@@H](C)C2 | – | inactive | – | inactive | –
3 | COc1cc2c(c(OC)c1OC)-c1c(cc(OC)c(OC)c1OC)CC(C)(C(C)I)C2 (stereo unspecified) | – | inactive | – | – | 4.5
4 | COc1cc2c(c(O)c1O)-c1c(cc(OC)c(O)c1O)CC(C)(C(C)O)C2 (stereo unspecified) | – | inactive | – | – | 4.2
5 | C/C=C(\C)C(=O)Oc1c(OC)c(OC)cc2c1-c1c(cc(OC)c(OC)c1OC)C[C@](C)(O)[C@@H](C)C2 | inactive | inactive | – | inactive | –
6 | C/C=C(/C)C(=O)Oc1c(OC)c(OC)cc2c1-c1c(cc(OC)c(OC)c1OC)C[C@](C)(O)[C@@H](C)C2 | inactive | inactive | – | inactive | –
7 | COc1cc2c(c(OC)c1OC)-c1c(cc(OC)c(OC)c1OC)C[C@](C)(O)[C@@H](C)C2 | inactive | inactive | – | inactive | –
8 | COc1cc2c(c(OC)c1OC)-c1c(cc3c(c1OC)OCO3)C[C@H](C)[C@](C)(O)C2 | inactive | inactive | – | inactive | –

— ChEMBL document CHEMBL1156986, “Derivatives of schisandrin with increased inhibitory potential on prostaglandin E(2) and leukotriene B(4) formation in vitro” (Bioorg Med Chem, 2010)
